# Activity calls are given as the source filed them.
# Assays:
# Fatty acid synthase [1] = target: T1, Fatty acid synthase (Homo sapiens, UniProt P49327); assay: inhibition of human FAS-TE enzyme activity – biochemical, endpoint fluorescence intensity, uHTS hits, dose response (AID 624327); type: functional;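 note: fluorescence from hydrolysis of an O-methyl fluorescein acyl ester substrate by the enzyme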
# Fatty acid synthase [2] = target: T1, Fatty acid synthase; assay: inhibition of human FAS-TE enzyme activity – biochemical, kinetic fluorescence intensity, dose response (AID 624326); type: functional;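 note: rate of fluorescence rise from hydrolysis of a fluorogenic O-methyl fluorescein ester substrate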
# H9c2 = assay: cells; type: functional, cell-based; settings: Rattus norvegicus, H9c2, Myocardium;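 note: confirmatory concentration-response retest of ultra-high-throughput screening hits for modulation of myocardial damage; cell death induced by hydrogen peroxide oxidative stress; compound pretreatment for 60 min then peroxide exposure for 2 h; potency is for protecting the cells against peroxide damage rather than for killing them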
# [3] = target: T2, Ubiquitin-conjugating enzyme E2 N (Homo sapiens, UniProt P61088); type: functional;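 note: Dose-response confirmation in a TR-FRET assay detecting UBC13-driven polyubiquitin chain formation, inhibition measured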
# T2 sequence (P61088 whole entry): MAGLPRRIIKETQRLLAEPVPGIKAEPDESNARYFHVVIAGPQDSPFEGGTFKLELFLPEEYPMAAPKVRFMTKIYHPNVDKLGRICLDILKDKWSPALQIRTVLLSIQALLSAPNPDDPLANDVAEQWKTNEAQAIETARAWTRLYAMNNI
# [4] = fluconazole-exposed Candida albicans growth modulators – fluorescence, retest, confirmation (AID 2467); type: functional, cell-based
# [5] = NIH-3T3 fibroblast cytotoxicity, dose response, cytotoxicity control, cell-based, fluorescence, Alamar Blue, secondary assay (AID 2327); type: functional;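 note: NIH-3T3 mouse fibroblasts cultured with fluconazole at 8 µg/mL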
# [6] = target: T3, RNA-binding protein pos-1 (Caenorhabditis elegans, UniProt G5EF15); assay: disruptors of C. elegans POS-1 RNA interaction – biochemical, fluorescence polarization, dose response (AID 1964);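 note: purified POS-1 fused to maltose binding protein made in E. coli; potency of compounds blocking POS-1 binding to fluorescent RNA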
# T3 sequence (G5EF15 whole entry): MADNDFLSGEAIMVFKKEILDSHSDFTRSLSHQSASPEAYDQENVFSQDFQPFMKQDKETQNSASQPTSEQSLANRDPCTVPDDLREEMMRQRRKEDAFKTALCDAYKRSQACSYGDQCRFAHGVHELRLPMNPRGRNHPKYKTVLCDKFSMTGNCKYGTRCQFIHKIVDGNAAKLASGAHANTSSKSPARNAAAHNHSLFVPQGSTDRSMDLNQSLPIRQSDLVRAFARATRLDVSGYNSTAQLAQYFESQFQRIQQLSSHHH
# [7] = target: T4, Zinc finger protein mex-5 (Caenorhabditis elegans, UniProt Q9XUB2); assay: potency of MEX-5 RNA-binding blockers – biochemical, C. elegans, fluorescence polarization, dose response (AID 1960)
# T4 sequence (Q9XUB2 whole entry): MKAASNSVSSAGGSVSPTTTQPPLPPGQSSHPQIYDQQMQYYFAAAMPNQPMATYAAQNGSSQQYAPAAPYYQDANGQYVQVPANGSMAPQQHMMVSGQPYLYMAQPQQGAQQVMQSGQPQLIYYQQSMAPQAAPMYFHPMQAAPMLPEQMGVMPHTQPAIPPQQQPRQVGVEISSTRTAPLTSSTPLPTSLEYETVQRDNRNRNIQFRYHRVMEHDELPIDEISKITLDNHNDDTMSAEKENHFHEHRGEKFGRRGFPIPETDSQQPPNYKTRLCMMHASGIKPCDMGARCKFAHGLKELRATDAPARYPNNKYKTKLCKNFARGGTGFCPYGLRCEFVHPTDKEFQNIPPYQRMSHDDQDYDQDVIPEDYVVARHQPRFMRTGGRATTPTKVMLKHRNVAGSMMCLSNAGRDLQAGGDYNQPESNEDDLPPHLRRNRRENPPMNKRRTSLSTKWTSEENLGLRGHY
# Protein RecA = target: T5, Protein RecA (Mycobacterium tuberculosis, UniProt P9WHJ3); assay: Fluorescence Cell-Free Homogeneous Dose Retest to Identify Inhibitors of RecA-Intein Splicing Activity. [Related pubchem assays (depositor defined):AID2097, AID2223, AID489010, AID492950]; type: functional
# T5 sequence (P9WHJ3 whole entry): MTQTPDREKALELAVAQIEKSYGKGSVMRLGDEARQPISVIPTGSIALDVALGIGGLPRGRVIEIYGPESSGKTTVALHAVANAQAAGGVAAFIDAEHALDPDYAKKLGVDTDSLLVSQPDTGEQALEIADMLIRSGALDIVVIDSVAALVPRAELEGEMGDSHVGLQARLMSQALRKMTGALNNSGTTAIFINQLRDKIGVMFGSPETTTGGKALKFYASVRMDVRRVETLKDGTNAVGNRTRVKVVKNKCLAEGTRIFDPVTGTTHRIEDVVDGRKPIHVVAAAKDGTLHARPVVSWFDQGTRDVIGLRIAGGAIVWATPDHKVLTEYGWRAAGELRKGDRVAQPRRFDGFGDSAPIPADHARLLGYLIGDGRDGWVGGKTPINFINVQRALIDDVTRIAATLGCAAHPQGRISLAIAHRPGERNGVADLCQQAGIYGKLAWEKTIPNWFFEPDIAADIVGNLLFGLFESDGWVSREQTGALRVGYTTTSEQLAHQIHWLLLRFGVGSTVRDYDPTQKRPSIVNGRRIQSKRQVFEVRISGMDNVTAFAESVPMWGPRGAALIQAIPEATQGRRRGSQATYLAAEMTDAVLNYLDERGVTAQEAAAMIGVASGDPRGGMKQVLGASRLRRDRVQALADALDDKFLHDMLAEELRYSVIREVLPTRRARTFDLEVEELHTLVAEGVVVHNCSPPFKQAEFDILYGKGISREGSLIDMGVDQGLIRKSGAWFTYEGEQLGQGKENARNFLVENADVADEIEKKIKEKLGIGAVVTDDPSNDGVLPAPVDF
# [8] = target: T6, Replicative DNA helicase DnaB (Mycobacterium tuberculosis, UniProt P9WMR3); assay: DnaB intein splicing inhibitors, dose response, biochemical, cell-free fluorescence (AID 449749); type: functional
# T6 sequence (P9WMR3 whole entry): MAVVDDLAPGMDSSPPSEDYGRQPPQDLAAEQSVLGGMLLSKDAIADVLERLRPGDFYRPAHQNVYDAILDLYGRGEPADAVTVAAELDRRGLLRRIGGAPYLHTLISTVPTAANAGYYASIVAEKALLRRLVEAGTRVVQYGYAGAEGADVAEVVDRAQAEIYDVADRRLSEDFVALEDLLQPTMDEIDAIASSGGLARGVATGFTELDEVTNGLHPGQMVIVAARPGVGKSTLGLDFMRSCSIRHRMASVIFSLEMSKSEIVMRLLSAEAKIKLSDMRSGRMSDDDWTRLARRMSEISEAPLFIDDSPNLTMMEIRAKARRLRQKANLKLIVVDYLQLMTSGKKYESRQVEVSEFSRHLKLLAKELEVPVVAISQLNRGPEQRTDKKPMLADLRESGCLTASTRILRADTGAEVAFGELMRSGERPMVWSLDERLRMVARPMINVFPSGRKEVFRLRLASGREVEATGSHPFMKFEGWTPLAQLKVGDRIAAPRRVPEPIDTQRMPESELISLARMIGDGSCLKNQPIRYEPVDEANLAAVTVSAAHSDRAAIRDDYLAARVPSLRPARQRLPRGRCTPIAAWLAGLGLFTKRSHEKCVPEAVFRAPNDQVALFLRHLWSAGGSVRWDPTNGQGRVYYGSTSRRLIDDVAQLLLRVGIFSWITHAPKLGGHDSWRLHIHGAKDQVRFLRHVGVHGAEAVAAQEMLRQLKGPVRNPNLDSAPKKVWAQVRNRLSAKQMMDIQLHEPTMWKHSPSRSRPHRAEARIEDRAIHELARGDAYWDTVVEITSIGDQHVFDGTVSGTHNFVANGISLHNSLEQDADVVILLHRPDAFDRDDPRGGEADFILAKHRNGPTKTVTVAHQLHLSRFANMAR
# cells = type: functional
# [9] = target: Heat shock protein HSP 90-alpha (Homo sapiens, UniProt P07900); type: functional, organism-based
# [10] = Luminescence Cell-Based Dose Confirmation HTS to Identify Activators of 5'UTR Stem-Loop Driven Alpha-Synuclein mRNA Translation in H4 Neuroglioblastoma Cells. [Related pubchem assays: 1829 (Project Summary), 1814 (Primary HTS)]; type: functional
# H4 = assay: Luminescence Cell-Based Dose Response HTS to Identify Activators of 5'UTR Stem-Loop Driven Prion Protein mRNA Translation in H4 Neuroglioblastoma Cells. [Related pubchem assays: 1829 (Project Summary), 1814 (Primary HTS)]; type: functional; settings: Homo sapiens
# [11] = Luminescence Cell-Based Dose Response HTS to Identify Activators of Luciferase Translation or Activity in H4 […] Cells. [Related pubchem assays: 1829 (Project Summary), 1814 (Primary HTS)]; type: functional
# Vero = assay: cells; type: functional; settings: Chlorocebus sabaeus
# T1 sequence (P49327 whole entry): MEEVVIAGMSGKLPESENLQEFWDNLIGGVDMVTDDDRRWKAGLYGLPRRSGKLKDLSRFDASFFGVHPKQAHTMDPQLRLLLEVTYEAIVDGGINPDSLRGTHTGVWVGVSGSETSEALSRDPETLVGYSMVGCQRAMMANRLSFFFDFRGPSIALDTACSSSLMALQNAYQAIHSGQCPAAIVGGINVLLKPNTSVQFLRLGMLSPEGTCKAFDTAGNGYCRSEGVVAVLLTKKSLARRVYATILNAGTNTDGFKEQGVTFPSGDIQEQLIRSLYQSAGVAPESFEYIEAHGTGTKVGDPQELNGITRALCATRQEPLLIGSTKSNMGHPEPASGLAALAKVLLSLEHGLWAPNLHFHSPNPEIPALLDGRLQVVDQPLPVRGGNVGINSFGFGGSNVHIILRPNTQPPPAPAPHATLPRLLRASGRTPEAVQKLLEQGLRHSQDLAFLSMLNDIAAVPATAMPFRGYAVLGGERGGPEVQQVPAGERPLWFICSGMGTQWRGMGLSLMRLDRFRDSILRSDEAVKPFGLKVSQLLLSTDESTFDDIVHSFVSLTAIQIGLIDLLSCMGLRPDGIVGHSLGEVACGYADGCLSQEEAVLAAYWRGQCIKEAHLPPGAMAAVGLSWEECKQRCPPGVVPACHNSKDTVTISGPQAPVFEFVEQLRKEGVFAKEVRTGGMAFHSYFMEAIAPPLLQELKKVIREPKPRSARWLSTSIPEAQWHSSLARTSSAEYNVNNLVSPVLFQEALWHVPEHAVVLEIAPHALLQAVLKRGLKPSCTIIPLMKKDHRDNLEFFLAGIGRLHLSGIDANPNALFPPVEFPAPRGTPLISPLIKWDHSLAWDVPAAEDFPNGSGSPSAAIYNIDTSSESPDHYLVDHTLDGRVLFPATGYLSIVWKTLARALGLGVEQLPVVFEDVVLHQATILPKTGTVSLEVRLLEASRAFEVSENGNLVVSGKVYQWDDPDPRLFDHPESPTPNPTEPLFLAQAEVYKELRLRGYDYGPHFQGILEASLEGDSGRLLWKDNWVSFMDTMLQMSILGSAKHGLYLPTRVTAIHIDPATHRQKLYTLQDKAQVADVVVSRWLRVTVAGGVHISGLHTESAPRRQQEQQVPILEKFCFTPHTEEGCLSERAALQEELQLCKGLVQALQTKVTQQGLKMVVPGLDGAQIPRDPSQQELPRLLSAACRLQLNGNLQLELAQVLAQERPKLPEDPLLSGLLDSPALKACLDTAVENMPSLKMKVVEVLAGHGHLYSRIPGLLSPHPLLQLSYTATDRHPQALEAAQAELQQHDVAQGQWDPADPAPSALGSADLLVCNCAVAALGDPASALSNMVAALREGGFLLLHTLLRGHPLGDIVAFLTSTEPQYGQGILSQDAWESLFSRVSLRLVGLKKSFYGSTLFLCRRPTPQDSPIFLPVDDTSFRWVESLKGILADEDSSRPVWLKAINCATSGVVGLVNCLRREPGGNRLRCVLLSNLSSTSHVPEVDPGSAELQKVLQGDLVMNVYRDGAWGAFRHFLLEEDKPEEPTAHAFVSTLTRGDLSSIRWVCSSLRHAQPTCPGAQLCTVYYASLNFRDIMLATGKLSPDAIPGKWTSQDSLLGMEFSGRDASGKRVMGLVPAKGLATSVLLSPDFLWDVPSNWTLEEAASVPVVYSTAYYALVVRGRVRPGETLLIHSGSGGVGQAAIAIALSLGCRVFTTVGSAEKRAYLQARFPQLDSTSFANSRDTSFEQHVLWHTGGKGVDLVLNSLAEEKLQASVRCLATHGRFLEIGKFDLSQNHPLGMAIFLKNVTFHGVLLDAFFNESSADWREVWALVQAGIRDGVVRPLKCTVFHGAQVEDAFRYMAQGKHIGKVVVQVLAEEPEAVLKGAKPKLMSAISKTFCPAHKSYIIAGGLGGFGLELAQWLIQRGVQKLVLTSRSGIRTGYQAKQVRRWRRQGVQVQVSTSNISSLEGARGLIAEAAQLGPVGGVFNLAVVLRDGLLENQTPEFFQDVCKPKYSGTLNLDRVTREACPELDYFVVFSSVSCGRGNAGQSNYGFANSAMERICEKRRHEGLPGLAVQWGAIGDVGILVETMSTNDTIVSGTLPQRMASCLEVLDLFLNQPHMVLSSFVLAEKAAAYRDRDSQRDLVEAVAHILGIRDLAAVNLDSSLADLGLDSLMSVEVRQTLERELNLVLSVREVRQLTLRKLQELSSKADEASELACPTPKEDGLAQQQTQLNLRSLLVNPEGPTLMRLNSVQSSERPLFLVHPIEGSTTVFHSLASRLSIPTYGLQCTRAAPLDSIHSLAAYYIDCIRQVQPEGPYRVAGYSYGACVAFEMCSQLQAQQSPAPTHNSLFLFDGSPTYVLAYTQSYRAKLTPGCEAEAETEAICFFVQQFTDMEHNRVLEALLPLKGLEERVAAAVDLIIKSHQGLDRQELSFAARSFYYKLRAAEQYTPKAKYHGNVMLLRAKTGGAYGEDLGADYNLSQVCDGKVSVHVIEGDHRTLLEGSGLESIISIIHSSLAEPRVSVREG
smiles,measurement,setting,value
COc1cc(OC)c(C2=NOC(C(=O)N3CCc4ccccc4C3)C2)cc1Cl (stereo not given),IC50,Fatty acid synthase [1],3.02 µM (active)
same,IC50,Fatty acid synthase [2],2.28 µM (active)
O=C(NCc1ccccc1)/C(=C/c1cccc([N+](=O)[O-])c1)NC(=O)c1ccco1,IC50,Fatty acid synthase [1],4.49 µM (active)
same,IC50,Fatty acid synthase [2],4.38 µM (active)
NC(=O)c1nsc(C(=O)N(c2ccccc2F)C(C(=O)NCc2ccc(F)cc2)c2ccc(O)cc2)c1N (stereo not given),IC50,H9c2,29.8 µM (active)
same,IC50,[3],> 20 µM (inactive)
CCOc1ccc(Nc2nc(NCC3CCCO3)c3ccccc3n2)cc1 (stereo not given),EC50,[4],2.32 µM (active)
same,IC50,[3],> 20 µM (inactive)
same,EC50,[5],33.5 µM (inconclusive)
COc1c(O)cccc1[C@@H](O)C1CCN(CCc2ccc(F)cc2)CC1,EC50,[6],13.8 µM (active)
same,EC50,[7],14.1 µM (inconclusive)
COC(=O)CCCCCN1C(=O)/C(=C\c2ccncc2)SC1=S,EC50,Protein RecA,17.7 µM (active)
same,AC50,[8],12.2 µM (active)
same,IC50,cells,7.86 µM (active)
Cc1ccc(N2C(=O)C3C4C=CC(CN=C(S)N5CCN(c6ccccn6)CC5)(O4)C3C2=O)cc1 (stereo not given),AC50,[9],7.77 µM (active)
COc1ccc(C2=NOC(COC(=O)c3ccc4ccccc4n3)C2)cc1 (stereo not given),EC50,[10],17.2 µM (active)
same,EC50,H4,4.71 µM (active)
same,EC50,[11],> 120 µM (not active)
same,IC50,cells,9.07 µM (active)
CC(=O)N1CCN(S(=O)(=O)c2cccc(C(=O)OCc3ccc(C(C)(C)C)cc3)c2)CC1,IC50,Fatty acid synthase [1],0.376 µM (active)
same,IC50,Fatty acid synthase [2],0.205 µM (active)
CCc1ccc(C(=O)NNC(=O)c2ccc(=O)n(C)n2)cc1,EC50,[6],> 300 µM (not active)
same,EC50,[7],6.42 µM (active)
O=C1CC(N2CCCN(C3CC(=O)N(c4ccc(F)cc4)C3=O)CC2)C(=O)N1c1ccc(F)cc1 (stereo not given),AC50,[9],4.32 µM (active)
Cc1ccccc1C(CC(=O)c1cccs1)C(C#N)C#N (stereo not given),EC50,Protein RecA,1.17 µM (active)
same,AC50,[8],> 380 µM (inconclusive)
same,CC50,Vero,17 µM (active)
CC(=O)OCCN(C)c1cc(SC(C)C)c2nonc2c1[N+](=O)[O-],EC50,Protein RecA,> 380 µM (inactive)
same,AC50,[8],> 380 µM (inactive)
same,IC50,cells,41.4 µM (active)

# Reference: ChEMBL document CHEMBL1201862, “PubChem BioAssay data set” (2004)
